Experimental data reported in US7138361B2, “Herbicidal heterocycles” (E. I. du Pont de Nemours and Company, priority 2000, dated 2006).

Key:
Assay type in all cases: in vivo
[1] = tested on: Surinam grass (Brachiaria decumbens); experiment: Test B postemergence; conditions: 13 to 15 days
Method in brief: (§1)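 Post-treatment, species sat 13–15 days under greenhouse conditions before visual scoring against controls, 0 (no effect) through 100 (complete control). Application preemergence to sown seeds or postemergence at 1- to 4-leaf stage, using a non-phytotoxic solvent/surfactant formulation.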

[2] = tested on: barnyardgrass (Echinochloa crus-galli); experiment: Test B postemergence; conditions: 13 to 15 days
Method in brief: as §1

[3] = tested on: blackgrass (Alopecurus myosuroides); experiment: Test B postemergence; conditions: 13 to 15 days
Method in brief: as §1

[4] = tested on: cocklebur (Xanthium strumarium); experiment: Test B postemergence; conditions: 13 to 15 days
Method in brief: as §1

corn (Zea mays) [5] = experiment: Test B postemergence; conditions: 13 to 15 days
Method in brief: as §1

[6] = tested on: crabgrass (Digitaria sanguinalis); experiment: Test B postemergence; conditions: 13 to 15 days
Method in brief: as §1

[7] = tested on: giant foxtail (Setaria faberii); experiment: Test B postemergence; conditions: 13 to 15 days
Method in brief: as §1

[8] = tested on: lambsquarters (Chenopodium album); experiment: Test B postemergence; conditions: Rate 500 g/ha, scale 0 to 100, 0 is no effect, 100 is complete control, 13 to 15 days
Method in brief: as §1

[9] = tested on: morning glory (Ipomoea hederacea); experiment: Test B postemergence; conditions: Rate 500 g/ha, scale 0 to 100, 0 is no effect, 100 is complete control, 13 to 15 days
Method in brief: as §1

[10] = tested on: pigweed (Amaranthus retroflexus); experiment: Test B postemergence; conditions: Rate 500 g/ha, scale 0 to 100, 0 is no effect, 100 is complete control, 13 to 15 days
Method in brief: as §1

[11] = tested on: velvetleaf (Abutilon theophrasti); experiment: Test B postemergence; conditions: Rate 500 g/ha, scale 0 to 100, 0 is no effect, 100 is complete control, 13 to 15 days
Method in brief: as §1

[12] = tested on: wheat (Triticum aestivum); experiment: Test B postemergence; conditions: Rate 500 g/ha, scale 0 to 100, 0 is no effect, 100 is complete control, 13 to 15 days
Method in brief: as §1

wild oat (Avena fatua) = experiment: Test B postemergence; conditions: Rate 500 g/ha, scale 0 to 100, 0 is no effect, 100 is complete control, 13 to 15 days
Method in brief: as §1

[13] = tested on: Surinam grass (Brachiaria decumbens); experiment: Test B preemergence
Method in brief: as §1

[14] = tested on: barnyardgrass (Echinochloa crus-galli); experiment: Test B preemergence
Method in brief: as §1

[15] = tested on: cocklebur (Xanthium strumarium); experiment: Test B preemergence
Method in brief: as §1

corn (Zea mays) [16] = experiment: Test B preemergence
Method in brief: as §1

[17] = tested on: crabgrass (Digitaria sanguinalis); experiment: Test B preemergence
Method in brief: as §1

[18] = tested on: giant foxtail (Setaria faberii); experiment: Test B preemergence
Method in brief: as §1

[19] = tested on: lambsquarters (Chenopodium album); experiment: Test B preemergence
Method in brief: as §1

[20] = tested on: morning glory (Ipomoea hederacea); experiment: Test B preemergence
Method in brief: as §1

[21] = tested on: pigweed (Amaranthus retroflexus); experiment: Test B preemergence
Method in brief: as §1

rice (Oryza saliva) = experiment: Test B preemergence
Method in brief: as §1

[22] = tested on: velvetleaf (Abutilon theophrasti); experiment: Test B preemergence
Method in brief: as §1

[23] = tested on: smallflower flatsedge (Cyperus difformis); experiment: Test C flooded paddy test; conditions: for Flatsedge plant response rating: Flooded Paddy, scale 0 to 100, 0 no effect, 100 complete control; for Plant response rating, Flatsedge / Plant response rating (scale 0 to 100), Flatsedge: flooded paddy test; for Plant response rating, Flatsedge: scale 0 to 100 (0 no effect, 100 complete control)
Method in brief: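 Greenhouse-maintained for 12 to 14 days after treatment, the paddy plants (2-leaf stage at application) were scored visually against controls. A score of 0 denotes no effect and a score of 100 denotes complete control.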

Nightshade = experiment: Test C preemergence; conditions: Rate 500 g/ha, visual evaluation after 12 to 14 days
Sunflower = experiment: Test C preemergence; conditions: Rate 500 g/ha, visual evaluation after 12 to 14 days
[24] = Rate 125 g/ha, scale 0 (no effect) to 100 (complete control)
[25] = Rate 500 g/ha, scale 0 to 100, 0 is no effect, 100 is complete control
[26] = Preemergence, Rate 500 g/ha, scale 0 to 100, 0 no effect, 100 complete control
[27] = preemergence, Rate 125 g/ha, scale of 0 to 100 where 0 is no effect and 100 is complete control, 13 to 15 days

CCCC(C)c1ccn(C2OCN(c3cccc(OC(F)(F)F)c3)C2=O)n1 (centres unmarked) [Compound 91]
Plant response rating, Surinam grass [1, 24]: 10 | Plant response rating, Surinam grass [1, 25]: 10 | Plant response rating, Barnyardgrass [2, 24]: 50 | Plant response rating, Barnyardgrass [2, 25]: 90 | Plant response rating, Blackgrass [3, 24]: 0 | Plant response rating, Blackgrass [3, 25]: 0 | Plant response rating, Cocklebur [4, 24]: 20 | Plant response rating, Cocklebur [4, 25]: 80 | Plant response rating, Corn (corn (Zea mays) [5]; [24]): 0 | Plant response rating, Corn (corn (Zea mays) [5]; [25]): 10 | Plant response rating, Crabgrass [6, 24]: 40 | Plant response rating, Crabgrass [6, 25]: 90 | Plant response rating, Foxtail, Giant [7, 24]: 0 | Plant response rating, Foxtail, Giant [7, 25]: 40 | Plant response rating, Lambsquarters [8]: 100 | Plant response rating, Morningglory [9]: 80 | Plant response rating, Pigweed [10]: 90 | Plant response rating, Velvetleaf [11]: 30 | Plant response rating, Wheat [12]: 0 | Plant response rating, Wild Oat (wild oat (Avena fatua)): 0 | Plant response rating, Surinam grass [13, 26]: 80 | Plant response rating, Surinam grass [13, 27]: 70 | Plant response rating, Barnyardgrass [14, 26]: 100 | Plant response rating, Barnyardgrass [14, 27]: 100 | Plant response rating, Cocklebur [15, 26]: 0 | Plant response rating, Cocklebur [15, 27]: 0 | Plant response rating, Corn (corn (Zea mays) [16]; [26]): 30 | Plant response rating, Corn (corn (Zea mays) [16]; [27]): 0 | Plant response rating, Crabgrass [17, 26]: 100 | Plant response rating, Crabgrass [17, 27]: 100 | Plant response rating, Foxtail, Giant [18, 26]: 100 | Plant response rating, Foxtail, Giant [18, 27]: 90 | Plant response rating, Lambsquarters [19, 26]: 100 | Plant response rating, Lambsquarters [19, 27]: 100 | Plant response rating, Morningglory [20, 26]: 0 | Plant response rating, Morningglory [20, 27]: 0 | Plant response rating, Pigweed [21, 26]: 100 | Plant response rating, Pigweed [21, 27]: 90 | Plant response rating, Rice (rice (Oryza saliva); [26]): 0 | Plant response rating, Rice (rice (Oryza saliva); [27]): 0 | Plant response rating, Velvetleaf [22, 26]: 0 | Plant response rating, Velvetleaf [22, 27]: 0 | Flatsedge plant response rating ([23]; Rate 250 g/ha): 100 | Flatsedge plant response rating ([23]; Rate 500 g/ha): 100 | Plant response rating, Flatsedge ([23]; Rate 62 g/ha): 0 | Plant response rating, Flatsedge ([23]; Rate 125 g/ha): 70 | Plant response rating (scale 0 to 100), Flatsedge ([23]; Rate 16 g/ha, visually evaluated after 12 to 14 days, 0 = no effect, 100 = complete control): 0 | Plant response rating (scale 0 to 100), Flatsedge ([23]; under head Rate 16 g/ha, (own rate not given), after 12 to 14 days): 0 | Plant response rating (0 to 100), Nightshade (Nightshade): 10 | Plant response rating (0 to 100), Sunflower (Sunflower): 10
